This passage reports maximum absorption wavelength, molar extinction coefficient and singlet oxygen yield results from patent US11439707B2, “Hypocrellin derivative substituted both in a peri-position and in 2-position by amino, preparation method, and application thereof” (priority 2017, dated 2022).

The nature of series [1]: absorption spectrum (maximum absorption wavelength, molar extinction coefficient). Type of series: physicochemical.
The nature of series [2]: singlet oxygen efficiency test, reference rose bengal. Type of series: physicochemical.

For `COCCOCCOCCOCCOCCOCCOCCN1C(=O)CN(C(=O)OCCNc2c(O)c3c(=O)cc(OC)c4c5c(OC)cc(=O)c6c(NCCOC(=O)N7CC(=O)N(CCOCCOCCOCCOCCOCCOCCOC)C(=O)C7)c(OC)c7c(c(c2C=C(C)C7C(C)=O)c34)c65)CC1=O` (stereo not drawn) [HB-40b-PEG6], in series [1], the maximum absorption wavelength was determined as 624 nm and the molar extinction coefficient is listed as 31,000 M^−1cm^−1. Also, the singlet oxygen yield in series [2] worked out at 34%.
For `COc1c(NCCCC(=O)OCCCC[N+](C)(C)C)c2c(=O)cc(OC)c3c4c(OC)cc(=O)c5c(O)c(NCCCC(=O)OCCCC[N+](C)(C)C)c6c(c(c1CC(C)=C6)c23)c54` [HC-8b-C4-N^+], in series [1], the maximum absorption wavelength was determined as 625 nm and the molar extinction coefficient was 31,000 M^−1cm^−1. The singlet oxygen yield in series [2] is listed as 32%.
`COc1c2c3c4c(c(NCCCC(=O)O)c(=O)c5c(O)cc(OC)c(c6c(OC)cc(NCCCC(=O)O)c(c1=O)c63)c54)C=C(C)C2` [HC-8d]: in series [1], the maximum absorption wavelength was determined as 623 nm and the molar extinction coefficient is 27,000 M^−1cm^−1. The singlet oxygen yield in series [2] worked out at 26%.
Take `COCCOC(=O)C1CCCCC1Nc1c(NC2CCCCC2C(=O)OCCOC)c2c(=O)cc(OC)c3c4c(OC)cc(=O)c5c(O)c(OC)c6c(c(c1C=C(C)C6C(C)=O)c23)c54` (stereo not drawn) [HB-16a-PEG1]: in series [1], the maximum absorption wavelength is reported as 624 nm and the molar extinction coefficient is given as 30,500 M^−1cm^−1. The compound also yielded a singlet oxygen yield in series [2] of 32%.
Consider `COCCOCCC(=O)OCCOCCNc1c(NCCOCCOC(=O)CCOCCOC)c2c(=O)cc(OC)c3c4c(OC)cc(=O)c5c(O)c(OC)c6c(c(c1C=C(C)C6)c23)c54` [HC-1a-PEG1], for which, in series [1], the maximum absorption wavelength turned out to be 622 nm and the molar extinction coefficient is listed as 30,500 M^−1cm^−1. Further, the singlet oxygen yield in series [2] is 32%.
Regarding `CCCNc1c2c3c4c(c(OC)c(=O)c5c(NCCC)cc(OC)c(c6c(OC)cc(O)c(c1=O)c63)c54)C(C(C)=O)C(C)=C2` (stereo not drawn) [HB-33d], in series [1], the maximum absorption wavelength worked out at 620 nm and the molar extinction coefficient is recorded as 32,500 M^−1cm^−1. Moreover, the singlet oxygen yield in series [2] was determined as 32%.
For `COc1c2c3c4c(c(NC(CS)C(=O)O)c(=O)c5c(O)cc(OC)c(c6c(OC)cc(NC(CS)C(=O)O)c(c1=O)c63)c54)C=C(C)C2C(C)=O` (stereo not drawn) [HB-25d], in that order: 630 nm, 20,500 M^−1cm^−1 and 18%.
Regarding `COc1c(NC(CCC(=O)O)C(=O)O)c2c(=O)cc(OC)c3c4c(OC)cc(=O)c5c(O)c(NC(CCC(=O)O)C(=O)O)c6c(c(c1C(C(C)=O)C(C)=C6)c23)c54` (stereo not drawn) [HB-28b], in series [1], the maximum absorption wavelength stood at 620 nm and the molar extinction coefficient is 21,000 M^−1cm^−1. Also, in series [2], the singlet oxygen yield is given as 19%.
As for `COc1c2c3c4c(c(NCc5cccc[n+]5CCCC(=O)O)c(=O)c5c(O)cc(OC)c(c6c(OC)cc(NCc7cccc[n+]7CCCC(=O)O)c(c1=O)c63)c54)C=C(C)C2C(C)=O` (stereo not drawn) [HB-38d-N—COOH], in series [1], the maximum absorption wavelength amounted to 626 nm and the molar extinction coefficient is reported as 21,000 M^−1cm^−1. The singlet oxygen yield in series [2] came out at 20%.
Regarding `COCCOCCOCCOCCOCCOCCOCCOCCOCCNC(=O)C1CCC(CNc2c3c4c5c(c(OC)c(=O)c6c(NCC7CCC(C(=O)NCCOCCOCCOCCOCCOCCOCCOCCOCCOC)CC7)cc(OC)c(c7c(OC)cc(O)c(c2=O)c74)c65)CC(C)=C3)CC1` (stereo not drawn) [HC-13d-NH-PEG8], in series [1], the maximum absorption wavelength was 625 nm and the molar extinction coefficient was 32,500 M^−1cm^−1. In addition, in series [2], the singlet oxygen yield is recorded as 30%.
Consider `COCCOCCOCCOCCOCCOCCOCCOCCOCCOCCOCCOCCOC(=O)CCCNc1c2c3c4c(c(OC)c(=O)c5c(O)cc(OC)c(c6c(OC)cc(NCCCC(=O)OCCOCCOCCOCCOCCOCCOCCOCCOCCOCCOCCOCCOC)c(c1=O)c63)c54)CC(C)=C2` [HC-8c-PEG12], for which, in series [1], the maximum absorption wavelength came to 628 nm and the molar extinction coefficient is on record as 32,500 M^−1cm^−1. Besides, the singlet oxygen yield in series [2] worked out at 38%.
As to `COCCOC(=O)CCCCCNc1c(NCCCCCC(=O)OCCOC)c2c(=O)cc(OC)c3c4c(OC)cc(=O)c5c(O)c(OC)c6c(c(c1C=C(C)C6)c23)c54` [HC-9a-PEG1], in series [1], the maximum absorption wavelength is recorded as 621 nm and the molar extinction coefficient is 30,000 M^−1cm^−1. The singlet oxygen yield in series [2] is 32%.
Consider `COCCOCCOCCOCCOCCOCCOC(=O)C1CCCC(Nc2c(O)c3c(=O)cc(OC)c4c5c(OC)cc(=O)c6c(NC7CCCC(C(=O)OCCOCCOCCOCCOCCOCCOC)C7)c(OC)c7c(c(c2C=C(C)C7C(C)=O)c34)c65)C1` (stereo not drawn) [HB-15b-PEG6], for which, in series [1], the maximum absorption wavelength came to 624 nm and the molar extinction coefficient is listed as 30,000 M^−1cm^−1. For the same compound, the singlet oxygen yield in series [2] was 34%.
For `COCCOCCOCCOCCOCCOCCOC(=O)C1CCC(Nc2c3c4c5c(c(OC)c(=O)c6c(NC7CCC(C(=O)OCCOCCOCCOCCOCCOCCOC)CC7)cc(OC)c(c7c(OC)cc(O)c(c2=O)c74)c65)C(C(C)=O)C(C)=C3)CC1` (stereo not drawn) [HB-14d-PEG6], in that order: 630 nm, 31,500 M^−1cm^−1 and 32%.
On to `COCCOCCOCCOCCOCCOCCOCCOCCOCCOCCOCCOCCOCCN1C(=O)CN(C(=O)OCCNc2c3c4c5c(c(OC)c(=O)c6c(NCCOC(=O)N7CC(=O)N(CCOCCOCCOCCOCCOCCOCCOCCOCCOCCOCCOCCOCCOC)C(=O)C7)cc(OC)c(c7c(OC)cc(O)c(c2=O)c74)c65)C(C(C)=O)C(C)=C3)CC1=O` (stereo not drawn) [HB-40d-PEG12], for which, in series [1], the maximum absorption wavelength stood at 628 nm and the molar extinction coefficient is on record as 30,500 M^−1cm^−1. Also, in series [2], the singlet oxygen yield was 30%.
For `COc1c(NCS(=O)(=O)O)c2c(=O)cc(OC)c3c4c(OC)cc(=O)c5c(O)c(NCCCS(=O)(=O)O)c6c(c(c1CC(C)=C6)c23)c54` [HC-45b], in series [1], the maximum absorption wavelength was 618 nm and the molar extinction coefficient was 21,500 M^−1cm^−1. The compound further displayed a singlet oxygen yield in series [2] of 20%.
The corresponding values for `COc1c2c3c4c(c(NCCCC(=O)NCCCC[N+](C)(C)C)c(=O)c5c(O)cc(OC)c(c6c(OC)cc(NCCCC(=O)NCCCC[N+](C)(C)C)c(c1=O)c63)c54)C=C(C)C2` [HC-8d-NH—C4-N^+] are 624 nm, 30,500 M^−1cm^−1 and 33%.
For the compound `COc1c(NCC2CCC(C(=O)NCCCCS(=O)(=O)O)CC2)c2c(=O)cc(OC)c3c4c(OC)cc(=O)c5c(O)c(NCC6CCC(C(=O)NCCCCS(=O)(=O)O)CC6)c6c(c(c1CC(C)=C6)c23)c54` (stereo not drawn) [HC-13b-C4-SO3H], in series [1], the maximum absorption wavelength worked out at 622 nm and the molar extinction coefficient is given as 30,000 M^−1cm^−1. Also, the singlet oxygen yield in series [2] is given as 32%.
The corresponding values for `COc1c2c3c4c(c(NC5CCCC(C(=O)O)C5)c(=O)c5c(O)cc(OC)c(c6c(OC)cc(NC7CCCC(C(=O)O)C7)c(c1=O)c63)c54)C=C(C)C2C(C)=O` (stereo not drawn) [HB-15d] are 623 nm, 27,000 M^−1cm^−1 and 24%.
The corresponding values for `COc1c(O)c2c(=O)cc(OC)c3c4c(OC)cc(=O)c5c(NC6CCC(C(=O)O)C6)c(NC6CCC(C(=O)O)C6)c6c(c(c1C(C(C)=O)C(C)=C6)c23)c54` (stereo not drawn) [HB-19a] are 621 nm, 25,500 M^−1cm^−1 and 21%.
On to `COCCOCCOCCOCCOCCOCCOC(=O)C1CCC(Nc2c(O)c3c(=O)cc(OC)c4c5c(OC)cc(=O)c6c(NC7CCC(C(=O)OCCOCCOCCOCCOCCOCCOC)CC7)c(OC)c7c(c(c2C=C(C)C7C(C)=O)c34)c65)CC1` (stereo not drawn) [HB-14b-PEG6], for which, in series [1], the maximum absorption wavelength amounted to 624 nm and the molar extinction coefficient is 30,500 M^−1cm^−1. In series [2], this compound showed a singlet oxygen yield of 34%.
Turning to `COCCOCCNC(=O)CCNc1c(NCCC(=O)NCCOCCOC)c2c(=O)cc(OC)c3c4c(OC)cc(=O)c5c(O)c(OC)c6c(c(c1C=C(C)C6C(C)=O)c23)c54` (stereo not drawn) [HB-10a-NH-PEG1], in series [1], the maximum absorption wavelength is recorded as 621 nm and the molar extinction coefficient is 31,500 M^−1cm^−1. For the same compound, the singlet oxygen yield in series [2] is 30%.
The corresponding values for `COc1c2c3c4c(c(NCCNCCOCCO)c(=O)c5c(O)cc(OC)c(c6c(OC)cc(NCCNCCOCCO)c(c1=O)c63)c54)C=C(C)C2C(C)=O` (stereo not drawn) [HB-5d-PEG1] are 625 nm, 30,500 M^−1cm^−1 and 32%.
The corresponding values for `COC(=O)C1CCC(CNc2c(NCC3CCC(C(=O)OC)CC3)c3c(=O)cc(OC)c4c5c(OC)cc(=O)c6c(O)c(OC)c7c(c(c2C=C(C)C7C(C)=O)c34)c65)CC1` (stereo not drawn) [HB-13a-AcE] are 625 nm, 27,000 M^−1cm^−1 and 25%.
`COC(=O)C(CO)Nc1c(O)c2c(=O)cc(OC)c3c4c(OC)cc(=O)c5c(NC(CO)C(=O)OC)c(OC)c6c(c(c1C=C(C)C6C(C)=O)c23)c54` (stereo not drawn) [HB-24b]: in series [1], the maximum absorption wavelength is recorded as 621 nm and the molar extinction coefficient is given as 21,500 M^−1cm^−1. In series [2], the singlet oxygen yield is 20%.
Consider `COc1c(NCCC(=O)O)c2c(=O)cc(OC)c3c4c(OC)cc(=O)c5c(O)c(NCCC(=O)O)c6c(c(c1C(C(C)=O)C(C)=C6)c23)c54` (stereo not drawn) [HB-10b], for which, in series [1], the maximum absorption wavelength stood at 615 nm and the molar extinction coefficient is listed as 31,500 M^−1cm^−1. In series [2], the singlet oxygen yield is listed as 34%.
As for `COc1c2c3c4c(c(NCc5ccccn5)c(=O)c5c(NCc6ccccn6)cc(OC)c(c6c(OC)cc(O)c(c1=O)c63)c54)C=C(C)C2C(C)=O` (stereo not drawn) [HB-38c], in series [1], the maximum absorption wavelength is 628 nm and the molar extinction coefficient is recorded as 20,000 M^−1cm^−1. The compound also displayed a singlet oxygen yield in series [2] of 18%.
For `COc1c(NCCOCCO)c2c(=O)cc(OC)c3c4c(OC)cc(=O)c5c(O)c(NCCOCCO)c6c(c(c1CC(C)=C6)c23)c54` [HC-1b], in series [1], the maximum absorption wavelength came out at 624 nm and the molar extinction coefficient is 27,000 M^−1cm^−1. In series [2], this compound gave a singlet oxygen yield of 33%.
